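At the GI50, growth is halved. TGI: total growth inhibition.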 Residues, ends and D or L forms follow the SMILES beside them. *: point of attachment. Cbz = O=C(OCc1ccccc1)*
Key:
Assay in all cases: DTP human tumour cell line panel, 384-well format
[1] = test system: A498 renal
[2] = test system: OVCAR-4 ovarian
[3] = test system: BT-549 breast
[4] = test system: KM12 colon
[5] = test system: UACC-257 melanoma
[6] = test system: M14 melanoma
[7] = test system: RPMI-8226 leukemia
[8] = test system: HOP-92 NSCLC
[9] = test system: SF-539 CNS
[10] = test system: SNB-19 CNS
[11] = test system: U251 glioblastoma
[12] = test system: CAKI-1 renal
[13] = test system: ACHN renal
[14] = test system: LOX IMVI melanoma
[15] = test system: HCT-15 colon
[16] = test system: 786-0 renal
[17] = test system: SK-MEL-28 melanoma
[18] = test system: K-562 leukemia
[19] = test system: SF-295 CNS
[20] = test system: CCRF-CEM leukemia
[21] = test system: PC-3 prostate
[22] = test system: OVCAR-8 ovarian
[23] = test system: HCC-2998 colon
[24] = test system: SNB-75 CNS
[25] = test system: T-47D breast
[26] = test system: NCI-H226 lung
[27] = test system: MDA-MB-435 melanoma
[28] = test system: SN12C renal
[29] = test system: RXF 393 renal
[30] = test system: NCI-H23 lung
[31] = test system: HS 578T breast
[32] = test system: SK-MEL-2 melanoma
[33] = test system: MALME-3M melanoma
[34] = test system: OVCAR-5 ovarian
[35] = test system: UO-31 renal
[36] = test system: MOLT-4 leukemia
[37] = test system: COLO 205 colon
[38] = test system: MCF7 breast
[39] = test system: HCT-116 colon
[40] = test system: OVCAR-3 ovarian
[41] = test system: SW-620 colon
[42] = test system: TK-10 renal
[43] = test system: EKVX NSCLC
[44] = test system: HOP-62 NSCLC
[45] = test system: MDA-MB-468 breast
[46] = test system: SF-268 CNS
[47] = test system: NCI/ADR-RES ovarian

Question: Which GI50 [1] does the source give for `CC(C)C[C@@H](C=O)NC(=O)[C@H](CC(C)C)NC(=O)[C@H](CC(C)C)NC(=O)OCc1ccccc1` (Cbz-Leu-Leu-Leu-aldehyde) here?
Answer: 263 nM

Question: And the TGI [1]?
Answer: 796 nM

Question: What about the GI50 [2] of the same compound?
Answer: 174 nM

Question: And the TGI [2]?
Answer: 324 nM

Question: What about the GI50 [3] of the same compound?
Answer: 164 nM

Question: And the TGI [3]?
Answer: 305 nM

Question: What about the GI50 [4] of the same compound?
Answer: 178 nM

Question: What about the TGI [4] of the same compound?
Answer: 326 nM

Question: And the GI50 [5]?
Answer: 131 nM

Question: What about the TGI [5] of the same compound?
Answer: 263 nM

Question: What about the GI50 [6] of the same compound?
Answer: 179 nM

Question: What about the TGI [6] of the same compound?
Answer: 324 nM

Question: What about the GI50 [7] of the same compound?
Answer: 30.1 nM

Question: What about the TGI [7] of the same compound?
Answer: 70.2 nM

Question: And the GI50 [8]?
Answer: 179 nM

Question: And the TGI [8]?
Answer: 328 nM

Question: What about the GI50 [9] of the same compound?
Answer: 167 nM

Question: And the TGI [9]?
Answer: 307 nM

Question: And the GI50 [10]?
Answer: 161 nM

Question: And the TGI [10]?
Answer: 340 nM

Question: What about the GI50 [11] of the same compound?
Answer: 211 nM

Question: What about the TGI [11] of the same compound?
Answer: 407 nM

Question: And the GI50 [12]?
Answer: 228 nM

Question: What about the TGI [12] of the same compound?
Answer: 676 nM

Question: What about the GI50 [13] of the same compound?
Answer: 202 nM

Question: What about the TGI [13] of the same compound?
Answer: 425 nM

Question: What about the GI50 [14] of the same compound?
Answer: 158 nM

Question: What about the TGI [14] of the same compound?
Answer: 298 nM

Question: What about the GI50 [15] of the same compound?
Answer: 194 nM

Question: And the TGI [15]?
Answer: 362 nM

Question: And the GI50 [16]?
Answer: 180 nM

Question: And the TGI [16]?
Answer: 361 nM

Question: And the GI50 [17]?
Answer: 142 nM

Question: What about the TGI [17] of the same compound?
Answer: 280 nM

Question: And the GI50 [18]?
Answer: 176 nM

Question: What about the TGI [18] of the same compound?
Answer: 334 nM

Question: And the GI50 [19]?
Answer: 192 nM

Question: And the TGI [19]?
Answer: 385 nM

Question: And the GI50 [20]?
Answer: 114 nM

Question: What about the TGI [20] of the same compound?
Answer: 239 nM

Question: What about the GI50 [21] of the same compound?
Answer: 177 nM

Question: What about the TGI [21] of the same compound?
Answer: 325 nM

Question: And the GI50 [22]?
Answer: 164 nM

Question: And the TGI [22]?
Answer: 313 nM

Question: And the GI50 [23]?
Answer: 179 nM

Question: And the TGI [23]?
Answer: 327 nM

Question: What about the GI50 [24] of the same compound?
Answer: 185 nM

Question: What about the TGI [24] of the same compound?
Answer: 351 nM

Question: And the GI50 [25]?
Answer: 169 nM

Question: And the TGI [25]?
Answer: 319 nM

Question: And the GI50 [26]?
Answer: 188 nM

Question: And the TGI [26]?
Answer: 372 nM

Question: What about the GI50 [27] of the same compound?
Answer: 176 nM

Question: And the TGI [27]?
Answer: 321 nM

Question: What about the GI50 [28] of the same compound?
Answer: 177 nM

Question: And the TGI [28]?
Answer: 355 nM

Question: What about the GI50 [29] of the same compound?
Answer: 149 nM

Question: And the TGI [29]?
Answer: 283 nM

Question: What about the GI50 [30] of the same compound?
Answer: 163 nM

Question: And the TGI [30]?
Answer: 310 nM

Question: And the GI50 [31]?
Answer: 121 nM

Question: What about the TGI [31] of the same compound?
Answer: 246 nM

Question: What about the GI50 [32] of the same compound?
Answer: 134 nM

Question: What about the TGI [32] of the same compound?
Answer: 268 nM

Question: And the GI50 [33]?
Answer: 155 nM

Question: And the TGI [33]?
Answer: 291 nM

Question: What about the GI50 [34] of the same compound?
Answer: 213 nM

Question: What about the TGI [34] of the same compound?
Answer: 440 nM

Question: What about the GI50 [35] of the same compound?
Answer: 179 nM

Question: And the TGI [35]?
Answer: 324 nM

Question: And the GI50 [36]?
Answer: 74.8 nM

Question: And the TGI [36]?
Answer: 200 nM

Question: What about the GI50 [37] of the same compound?
Answer: 258 nM

Question: What about the TGI [37] of the same compound?
Answer: 714 nM

Question: What about the GI50 [38] of the same compound?
Answer: 99.1 nM

Question: And the TGI [38]?
Answer: 603 nM

Question: What about the GI50 [39] of the same compound?
Answer: 146 nM

Question: And the TGI [39]?
Answer: 296 nM

Question: And the GI50 [40]?
Answer: 94 nM

Question: And the TGI [40]?
Answer: 225 nM

Question: What about the GI50 [41] of the same compound?
Answer: 138 nM

Question: And the TGI [41]?
Answer: 275 nM

Question: What about the GI50 [42] of the same compound?
Answer: 195 nM

Question: And the TGI [42]?
Answer: 417 nM

Question: What about the GI50 [43] of the same compound?
Answer: 222 nM

Question: What about the TGI [43] of the same compound?
Answer: 534 nM

Question: What about the GI50 [44] of the same compound?
Answer: 180 nM

Question: What about the TGI [44] of the same compound?
Answer: 339 nM

Question: What about the GI50 [45] of the same compound?
Answer: 126 nM

Question: And the TGI [45]?
Answer: 253 nM

Question: What about the GI50 [46] of the same compound?
Answer: 166 nM

Question: And the TGI [46]?
Answer: 313 nM

Question: What about the GI50 [47] of the same compound?
Answer: 1570 nM

Question: And the TGI [47]?
Answer: 3060 nM

— PubChem BioAssay (NCI)
